We go through five compounds from patent publication US20160008339A1, “PSORALEN DERIVATIVES FOR PREVENTING OR TREATING HEART FAILURE OR CARDIAC HYPERTROPHY” (MAX-DELBRUCK-CENTRUM FUR MOLEKULARE MEDIZIN, priority 2012, published 2016).

In experiment [1] the target is T1, AKAP-Lbc (guanine nucleotide exchange on RhoA) (Homo sapiens, UniProt Q12802).
T1 sequence (Q12802 1994-2333): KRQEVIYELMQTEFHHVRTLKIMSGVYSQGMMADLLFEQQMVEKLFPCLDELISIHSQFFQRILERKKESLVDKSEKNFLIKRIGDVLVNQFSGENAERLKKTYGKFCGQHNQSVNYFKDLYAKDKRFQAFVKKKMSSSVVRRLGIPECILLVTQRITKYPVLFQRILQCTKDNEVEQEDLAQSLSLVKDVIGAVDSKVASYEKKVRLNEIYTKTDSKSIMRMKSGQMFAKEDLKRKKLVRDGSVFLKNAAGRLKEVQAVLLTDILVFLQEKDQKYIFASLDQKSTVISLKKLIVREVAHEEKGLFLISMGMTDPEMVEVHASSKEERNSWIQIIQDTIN
The experiment in a line: RhoGEF nucleotide exchange assay (GDP against mGTP on RhoA). Conditions: IC50 (fifty percent inhibition of nucleotide exchange), 15 min.
Procedure: Following the protocol of the RhoGEF exchange assay Biochem Kit, a nucleotide exchange experiment for AKAP-Lbc and RhoA was established. The fluorescence labelled nucleotide analogues 2′(3′)-O—(N-methylanthraniloyl)-guanosine diphosphate and 2′(3′)-O—(N-methylanthraniloyl)-guanosine triphosphate, hereinafter referred to mGDP and mGTP, were used for tracing the nucleotide exchange.
25 μl depletion buffer (100 mmol/L sodium phosphate, pH 7.4, 5 mmol/L EDTA, 200 mmol/L ammonium sulfate) with an excess of mGDP (5 mmol/L) were added to 200 μg recombinant his6-RhoA (25 μl) and incubated one hour at room temperature. Then, magnesium chloride (MgCl2) was added to a final concentration of 10 mmol/L.
By centrifugation with Vivaspin® 500 concentrator vials (MWCO 5 kDa, 10 min, 10000 rpm) and buffer (100 mmol/L sodium phosphate, pH 7.4, 100 mmol/L NaCl, protease inhibitor [cOmplete, Mini, EDTA-free protease inhibitor cocktaile]) RhoA-mGDP was washed twice and reduced to 100 μl. 1 μmol/L RhoA-mGDP and 0.5 μmol/L AKAP-Lbc DHPH in nucleotide exchange buffer (40 mmol/L Tris pH 7.5; 100 mmol/L NaCl; 20 mmol/L MgCl2, 100 μg/ml BSA) were used for the nucleotide exchange. The fluorescence measurements were performed in a micro plate reader (TECAN Safire) over a period of 15 min, whereby the fluorophore of mGDP was excited at 360 nm and the resulting fluorescence signal was determined at 440 nm.
At a concentration relation of 2 μmol/L protein and 1 μmol/L mGTP, an ideal fluorescence signal-to-noise-ratio was found in the nucleotide exchange buffer (40 mM Tris pH 7.5, 100 mmol/L NaCl, 20 mmol/L MgCl2, 100 μg/ml BSA). The fluorescence signal for mGTP was measured analogous to mGDP (λexc=360 nm; λem=440 nm) in a micro plate reader (TECAN Safire) over a period of 15 min. The experiment was performed in a 384-well plate.

Experiment [2] deals with primary neonatal rat cardiomyocytes. The experiment in a line: Beat frequency of neonatal cardiomyocytes by Fluo-4 calcium measurement. It counts as cell-based. The conditions noted are these: Fluo-4, from 100 bpm.
Procedure: The frequency of contraction could be determined in a similar manner with a calcium sensor (Fluo-4). In a laser-scanning microscope, Fluo-4 was excited with an argon laser (488 nm) and the emission signals were detected and collected at a wavelength of 505 nm. The fluorescence intensity represented the intracellular concentration of calcium ions. Usually, the line-scan mode was used for image recording, and the line-scan images were recorded with a speed of 1.54 or 1.92 ms per line along the longitudinal axis of the cell. After the sequential image recording, a two-dimensional image with 512×100 lines or 512×2000 lines was generated and saved for later analysis.
Additional calcium measurements were performed. […] The fluorescence dye Fluo-4 was added after 20 min. Fluo-4 is a calcium sensor, which is used for investigating the calcium increase in cells. In cardiomyocytes the dye serves for examining the contractility. During contraction and relaxation, the calcium concentrations differ in the cytosol of cardiomyocytes. The fluorescence intensity of Fluo-4 increases with an increasing calcium concentration, and a decreasing calcium concentration will cause reduced fluorescence intensity. A frequency could be calculated from the fluo-4 fluorescence oscillation by a time depended analysis, wherein the fluorescence was measured over a period of two hours. The ground state at the moment before application (black), the period 10 to 30 sec after application (dark grey) and 70 to 110 sec after application (light grey) were evaluated (FIG. 5). Application refers to the adding of PE or adrenaline. […] The statistical analysis was performed according to the method of analysis of variance (ANOVA).
Experiment [3] concerns primary neonatal cardiomyocytes (α-sceletal muscle actin mRNA). Put plainly: Hypertrophy marker α-actin 1 mRNA by quantitative real-time PCR. It counts as cell-based, rat. Conditions: PE 100 μmol/L, 24 hours. As to the method: Primary neonatal cardiomyocytes were prepared as described above. The cardiomyocytes were stimulated for 24 or 48 hours with 100 μmol/L phenylephrin (PE) or 10 μmol/L isoproterenol (ISO) in absence or presence of 10 μmol/L or 50 μmol/L of compound 31413.
After 24 hours or 48 hour of stimulation, the medium was removed, and every well was washed with 2 ml phosphate buffered saline and fixed with 200 μl TRIzol. The cells were removed from each well and transferred into a 1.5 ml Eppendorf tube, respectively.
For cell breakdown, 40 μl chloroform was added to each Eppendorf tube. The broken cells were centrifuged for 15 min at 1400 g and 4° C. The supernatant containing RNA/DNA was taken, mixed with 100 μl isopropanol and centrifugated for 20 min at 1500 g and 4° C. The supernatant was discarded and the pellet was resuspended in 500 μL ethanol. The RNA from the pellet was purified by chromatography. The concentration of the RNA was determined by NANODROP.
The quantification of the hypertrophy marker α-sceletal muscle actin (α-actin 1) mRNA was performed by quantitative real-time PCR. First, the RNA was transcribed to a cDNA with a SuperScript™III First-Strand Synthesis SuperMix (Invitrogen) and random hexamer primers. The cDNA was amplified in a PCR reaction in an Applied Biosystem StepOne™ Real-Time PCR System. Glycerinealdehydephosphate dehydrogenase and NTC (no template control) was used as controls. All samples were triplicates. The following primers have been used: […]
(In general: Real-time PCR tracks product formation cycle by cycle.)

The subject of experiment [4] is primary neonatal rat cardiomyocytes. The experiment in a line: Beat rate of neonatal cardiomyocytes counted by light microscope. Conditions: PE 100 μmol/L for six hours, from 100 bpm. It is filed as cell-based. As to the method:
For cultivation of primary neonatal rat cardiomyocytes, hearts of two to three days old rats were obtained and quickly stored on ice in ADS buffer (116.4 mM NaCl, 5.4 mM KC, 5.6 mM dextrose, 10.9 mM NaH2PO4, 405.7 μmol/L MgSO4, 20 mM Hepes, pH 7.3). Under sterile conditions, the hearts were cleaned from blood and vessels, cut into small pieces and transferred into falcon tubes. The ADS buffer was exchanged against an enzyme solution (see table below). Within four cycles each with five ml enzyme solution and an enzyme mix comprising collagenase and pancreatin, isolated cells were released from the tissue (12 min at 37° C. in a water bath with approx. 220 rpm).
The supernatant with the isolated cells was collected, transferred in fetal calf serum (FCS, 2.5 ml on ice) and subsequently centrifugated in FCS (100 g for 3 min at 4° C.). The supernatant of the centrifugation was discarded and the pellet was resuspended in 5 ml cold plating medium. After an additional centrifugation, the pellet was resuspended in 15 ml medium, transferred into a dish and incubated for two hours at 37° C. to allow the settling of the fibroblasts. The cardiomyocytes in the supernatant were counted with a Scepter Handheld Automated Cell Counter and transferred in dishes coated with gelatine. On the following day the medium was changed.
The neonatal cardiomyocytes were seeded in 6-well plates with 1.5×10^6 cell per well. The stimulation with 100 μmol/L phenylephrine (PE) was performed for six or twenty four hours at 37° C. Untreated cells served as control. The effect of compound 31413 on the α-adrenergic stimulation of the cardiomyocytes was determined after incubation with the compound for three hours. To do this, the contraction of the cells was counted within a minute and different conditions were compared.
Isolated neonatal cardiomyocytes were used to investigate the relation between AKAP-Lbc induced RhoA activation and the contractility of the heart. After a chronic stimulation of the α1-adreno receptors (AR) with the specific agonist PE for six hours, the beats of the cardiomyocytes were counted over a period of 15 s and a beat rate per minute (bpm) was calculated. An increase of the beat rate of the cardiomyocytes from 100 bpm to 160 beats per minute could be observed. […] The beat rate of neonatal cardiomyocytes was counted with help of a light microscope.

The subject of experiment [5] is 3T3 mouse fibroblasts. Put plainly: LPA-induced stress fibre formation, TRITC-phalloidin fluorescence. It counts as cell-based. The conditions noted are these: 3T3 cells, LPA alone (DMSO). An excerpt: For the initial analysis, 3T3 cells were used to evaluate the cellular effects of the compounds of the present invention. In these cells changes in the cytoskeleton caused by GTPase activation are well observable, because the cells have a G protein coupled receptor for LPA. A stimulation of 3T3 cells with LPA leads to an activation of RhoA and thereby to the formation of fibrillar actin filaments (F-actin, stress fibres). The participation of AKAP-Lbc as an exchange factor for RhoA within the signal transduction via a G protein of the G−12/13 family was shown.
3T3 mouse fibroblasts were seeded on 30 mm cover slips (in 6 well plates) in a cell density of 2×10^5 cells/well. […]
Following that, the cells were washed with phosphate buffer (Dulbecco's Phosphate-Buffered Saline++) and fixed in 2.5% paraformaldehyde in sodium cacodylate buffer (100 mmol/L sodium cacodylate, 100 mmol/L sucrose, pH 7.4) for 15 min. […] For the microscopic investigations, images were taken with two different fluorescence channels. […]
Without LPA stimulation no stress fibres could be identified after addition of DMSO instead of the compounds of the invention (FIG. 2A, a). […] The quantification of the stress fibre formation were performed with the software package ImageJ by the determination of the overall fluorescence of the TRITC-phalloidin. […]

What is called IC50 is the concentration that gives 50% inhibition. Higher therefore signals weaker potency in that assay.

As to `CCCc1cc(=O)oc2cc3occ(-c4ccc(OC)cc4)c3cc12` [Compound 31864, 3-(4-methoxyphenyl)-5-propyl-furo[3,2-g]chromen-7-one], half-maximal inhibition in experiment [1] (IC50) was put at 39.9 µM.
The same measure, in the same setting: the result for `CCCCc1cc(=O)oc2cc3occ(-c4ccc(OC)cc4)c3cc12` [Compound 31892, 5-butyl-3-(4-methoxyphenyl)furo[3,2-g]chromen-7-one] reads 78.9 µM.
`CNC[C@H](O)c1cccc(O)c1` [PE, phenylephrine, reference compound]: the frequency after stimulation in experiment [2] is listed as 150 bpm. Further, the “increase in relative amount of α-actin 1 mRNA” value in experiment [3] is “threefold increase”. Besides, the “beat rate of the cardiomyocytes after stimulation” value in experiment [4] was determined as 160 beats per minute.
Regarding `CNCC(O)c1ccc(O)c(O)c1` (stereo not shown) [adrenaline, reference compound], the frequency after stimulation in experiment [2] was found to be 200 bpm.
For “lysophosphatide acid [LPA, reference compound]”, the “formation of stress fibres after stimulation” value in experiment [5] is given as “clear formation of stress fibres”.
